Test results published in the kinase profiling compilation of Christmann-Franck et al. (2016).

target: MAPKAPK2 (human) (UniProt P49137); test: radiometric filter-binding kinase assay, Kinase HotSpot; conditions: compound 0.5 µM; ATP 10 µM

| Structure (SMILES) | residual activity [%] |
| --- | --- |
| FC(F)(F)c1ccc(/C=C/c2nc(COc3ccc(CCCCn4ccnn4)cc3)co2)cc1 | 97.9 |
| COc1cc2ncnc(Nc3ccc(O)c(Br)c3)c2cc1OC | 97.7 |
| CCOc1cc2ncnc(Nc3cccc(Br)c3)c2cc1OCC | 101 |
| O=C1NC(=O)c2c1c1c3ccccc3[nH]c1c1[nH]c3cc(Br)ccc3c21 | 101 |

target: MAPKAPK3 (human) (UniProt Q16644); test: as above; conditions: compound 0.5 µM; ATP 10 µM

| Structure (SMILES) | residual activity [%] |
| --- | --- |
| FC(F)(F)c1ccc(/C=C/c2nc(COc3ccc(CCCCn4ccnn4)cc3)co2)cc1 | 98.9 |
| COc1cc2ncnc(Nc3ccc(O)c(Br)c3)c2cc1OC | 96.2 |
| CCOc1cc2ncnc(Nc3cccc(Br)c3)c2cc1OCC | 87.4 |
| O=C1NC(=O)c2c1c1c3ccccc3[nH]c1c1[nH]c3cc(Br)ccc3c21 | 118 |

target: MATK (human) (UniProt P42679); test: as above; conditions: compound 0.5 µM; ATP 10 µM
Sequence (P42679 whole entry, looked up): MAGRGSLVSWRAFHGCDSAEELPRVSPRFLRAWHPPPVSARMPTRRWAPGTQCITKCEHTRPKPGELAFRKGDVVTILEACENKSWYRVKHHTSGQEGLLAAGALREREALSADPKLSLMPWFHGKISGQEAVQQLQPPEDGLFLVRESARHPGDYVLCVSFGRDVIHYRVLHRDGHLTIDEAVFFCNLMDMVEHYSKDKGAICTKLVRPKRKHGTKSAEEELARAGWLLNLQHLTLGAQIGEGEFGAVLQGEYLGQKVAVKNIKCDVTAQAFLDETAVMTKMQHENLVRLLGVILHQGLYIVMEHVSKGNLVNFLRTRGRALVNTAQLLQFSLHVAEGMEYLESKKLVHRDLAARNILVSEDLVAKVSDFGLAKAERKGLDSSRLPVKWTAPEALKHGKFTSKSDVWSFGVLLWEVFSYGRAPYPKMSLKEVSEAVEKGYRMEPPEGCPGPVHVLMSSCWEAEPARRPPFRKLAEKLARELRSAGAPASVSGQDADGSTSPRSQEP

| Structure (SMILES) | residual activity [%] |
| --- | --- |
| FC(F)(F)c1ccc(/C=C/c2nc(COc3ccc(CCCCn4ccnn4)cc3)co2)cc1 | 95 |
| COc1cc2ncnc(Nc3ccc(O)c(Br)c3)c2cc1OC | 98 |
| CCOc1cc2ncnc(Nc3cccc(Br)c3)c2cc1OCC | 90.5 |
| O=C1NC(=O)c2c1c1c3ccccc3[nH]c1c1[nH]c3cc(Br)ccc3c21 | 97.3 |

target: MELK (human) (UniProt Q14680); test: as above; conditions: compound 0.5 µM; ATP 10 µM
Sequence (Q14680 whole entry, looked up): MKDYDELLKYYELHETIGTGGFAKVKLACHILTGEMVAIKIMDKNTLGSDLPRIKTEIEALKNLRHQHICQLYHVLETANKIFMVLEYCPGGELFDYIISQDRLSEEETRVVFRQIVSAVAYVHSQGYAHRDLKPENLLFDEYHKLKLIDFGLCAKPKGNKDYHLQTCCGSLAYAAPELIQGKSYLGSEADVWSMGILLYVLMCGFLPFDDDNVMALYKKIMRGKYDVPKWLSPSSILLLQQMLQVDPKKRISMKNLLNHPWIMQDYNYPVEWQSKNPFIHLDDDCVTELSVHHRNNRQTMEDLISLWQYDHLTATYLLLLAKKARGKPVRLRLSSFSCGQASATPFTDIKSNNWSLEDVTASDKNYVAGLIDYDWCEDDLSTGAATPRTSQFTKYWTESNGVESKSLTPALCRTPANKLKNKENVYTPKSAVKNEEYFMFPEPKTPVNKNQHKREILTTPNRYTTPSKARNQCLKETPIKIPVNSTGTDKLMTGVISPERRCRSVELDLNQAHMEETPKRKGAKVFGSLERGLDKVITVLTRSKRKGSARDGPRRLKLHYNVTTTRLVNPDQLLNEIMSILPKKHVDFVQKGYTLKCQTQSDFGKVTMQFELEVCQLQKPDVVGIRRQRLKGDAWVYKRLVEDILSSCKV

| Structure (SMILES) | residual activity [%] |
| --- | --- |
| FC(F)(F)c1ccc(/C=C/c2nc(COc3ccc(CCCCn4ccnn4)cc3)co2)cc1 | 85.4 |
| COc1cc2ncnc(Nc3ccc(O)c(Br)c3)c2cc1OC | 83.4 |
| CCOc1cc2ncnc(Nc3cccc(Br)c3)c2cc1OCC | 88.1 |
| O=C1NC(=O)c2c1c1c3ccccc3[nH]c1c1[nH]c3cc(Br)ccc3c21 | 46.6 |

target: MERTK (human) (UniProt Q12866); test: as above; conditions: compound 0.5 µM; ATP 10 µM

| Structure (SMILES) | residual activity [%] |
| --- | --- |
| FC(F)(F)c1ccc(/C=C/c2nc(COc3ccc(CCCCn4ccnn4)cc3)co2)cc1 | 97.9 |
| COc1cc2ncnc(Nc3ccc(O)c(Br)c3)c2cc1OC | 87.7 |
| CCOc1cc2ncnc(Nc3cccc(Br)c3)c2cc1OCC | 87.1 |
| O=C1NC(=O)c2c1c1c3ccccc3[nH]c1c1[nH]c3cc(Br)ccc3c21 | 69.1 |

target: NEK3 (human) (UniProt P51956); test: as above; conditions: compound 0.5 µM; ATP 10 µM
Sequence (P51956 whole entry, looked up): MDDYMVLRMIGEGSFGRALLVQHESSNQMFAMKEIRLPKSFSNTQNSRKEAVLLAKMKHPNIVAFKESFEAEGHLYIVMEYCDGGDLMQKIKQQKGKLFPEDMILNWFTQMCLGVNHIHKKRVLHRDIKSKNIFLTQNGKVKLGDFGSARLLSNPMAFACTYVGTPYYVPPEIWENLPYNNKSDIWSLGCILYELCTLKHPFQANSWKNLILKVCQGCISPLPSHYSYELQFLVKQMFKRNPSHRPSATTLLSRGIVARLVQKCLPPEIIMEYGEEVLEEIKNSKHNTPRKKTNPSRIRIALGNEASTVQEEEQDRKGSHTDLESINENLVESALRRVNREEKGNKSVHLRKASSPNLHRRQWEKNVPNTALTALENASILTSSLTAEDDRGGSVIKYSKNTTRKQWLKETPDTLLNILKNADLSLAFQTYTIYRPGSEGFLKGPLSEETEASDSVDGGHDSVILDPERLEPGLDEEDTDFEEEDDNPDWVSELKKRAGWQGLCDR

| Structure (SMILES) | residual activity [%] |
| --- | --- |
| FC(F)(F)c1ccc(/C=C/c2nc(COc3ccc(CCCCn4ccnn4)cc3)co2)cc1 | 100 |
| COc1cc2ncnc(Nc3ccc(O)c(Br)c3)c2cc1OC | 88.4 |
| CCOc1cc2ncnc(Nc3cccc(Br)c3)c2cc1OCC | 100 |
| O=C1NC(=O)c2c1c1c3ccccc3[nH]c1c1[nH]c3cc(Br)ccc3c21 | 88.3 |

target: PDGFRB (human) (UniProt P09619); test: as above; conditions: compound 0.5 µM; ATP 10 µM

| Structure (SMILES) | residual activity [%] |
| --- | --- |
| FC(F)(F)c1ccc(/C=C/c2nc(COc3ccc(CCCCn4ccnn4)cc3)co2)cc1 | 98.1 |
| COc1cc2ncnc(Nc3ccc(O)c(Br)c3)c2cc1OC | 93.7 |
| CCOc1cc2ncnc(Nc3cccc(Br)c3)c2cc1OCC | 94.8 |
| O=C1NC(=O)c2c1c1c3ccccc3[nH]c1c1[nH]c3cc(Br)ccc3c21 | 82.6 |

target: PKN1 (human) (UniProt Q16512); test: as above; conditions: compound 0.5 µM; ATP 10 µM
Sequence (Q16512 whole entry, looked up): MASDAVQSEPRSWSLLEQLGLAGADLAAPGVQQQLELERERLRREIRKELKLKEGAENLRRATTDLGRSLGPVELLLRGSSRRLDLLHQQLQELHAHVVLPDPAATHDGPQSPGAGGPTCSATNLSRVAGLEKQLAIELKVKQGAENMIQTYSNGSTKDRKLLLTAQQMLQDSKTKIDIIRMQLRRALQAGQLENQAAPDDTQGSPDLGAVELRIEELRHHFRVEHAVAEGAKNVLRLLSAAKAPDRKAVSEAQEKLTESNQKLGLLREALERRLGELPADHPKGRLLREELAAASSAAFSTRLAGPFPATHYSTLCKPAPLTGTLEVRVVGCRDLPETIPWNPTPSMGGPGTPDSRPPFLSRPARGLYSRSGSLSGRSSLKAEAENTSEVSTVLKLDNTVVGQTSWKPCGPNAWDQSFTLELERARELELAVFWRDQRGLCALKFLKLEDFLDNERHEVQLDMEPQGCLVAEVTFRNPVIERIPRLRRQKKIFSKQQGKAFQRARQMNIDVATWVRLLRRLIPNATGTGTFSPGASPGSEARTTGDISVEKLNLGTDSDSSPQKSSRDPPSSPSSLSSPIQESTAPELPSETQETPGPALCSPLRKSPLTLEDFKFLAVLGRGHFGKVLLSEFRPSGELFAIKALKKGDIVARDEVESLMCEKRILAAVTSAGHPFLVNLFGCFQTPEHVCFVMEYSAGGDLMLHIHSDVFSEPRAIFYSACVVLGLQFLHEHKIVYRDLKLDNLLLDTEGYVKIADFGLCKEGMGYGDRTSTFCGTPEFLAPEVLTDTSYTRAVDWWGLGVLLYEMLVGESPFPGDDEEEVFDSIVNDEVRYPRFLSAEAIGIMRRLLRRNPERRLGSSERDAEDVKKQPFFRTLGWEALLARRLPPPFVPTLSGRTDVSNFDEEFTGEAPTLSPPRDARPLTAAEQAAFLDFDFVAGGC

| Structure (SMILES) | residual activity [%] |
| --- | --- |
| FC(F)(F)c1ccc(/C=C/c2nc(COc3ccc(CCCCn4ccnn4)cc3)co2)cc1 | 97 |
| COc1cc2ncnc(Nc3ccc(O)c(Br)c3)c2cc1OC | 95.6 |
| CCOc1cc2ncnc(Nc3cccc(Br)c3)c2cc1OCC | 100 |
| O=C1NC(=O)c2c1c1c3ccccc3[nH]c1c1[nH]c3cc(Br)ccc3c21 | 66 |

target: PKN2 (human) (UniProt Q16513); test: as above; conditions: compound 0.5 µM; ATP 10 µM

| Structure (SMILES) | residual activity [%] |
| --- | --- |
| FC(F)(F)c1ccc(/C=C/c2nc(COc3ccc(CCCCn4ccnn4)cc3)co2)cc1 | 107 |
| COc1cc2ncnc(Nc3ccc(O)c(Br)c3)c2cc1OC | 97.2 |
| CCOc1cc2ncnc(Nc3cccc(Br)c3)c2cc1OCC | 90 |
| O=C1NC(=O)c2c1c1c3ccccc3[nH]c1c1[nH]c3cc(Br)ccc3c21 | 88.7 |

target: PLK3 (human) (UniProt Q9H4B4); test: as above; conditions: compound 0.5 µM; ATP 10 µM

| Structure (SMILES) | residual activity [%] |
| --- | --- |
| FC(F)(F)c1ccc(/C=C/c2nc(COc3ccc(CCCCn4ccnn4)cc3)co2)cc1 | 107 |
| COc1cc2ncnc(Nc3ccc(O)c(Br)c3)c2cc1OC | 95.2 |
| CCOc1cc2ncnc(Nc3cccc(Br)c3)c2cc1OCC | 97.1 |
| O=C1NC(=O)c2c1c1c3ccccc3[nH]c1c1[nH]c3cc(Br)ccc3c21 | 93.3 |

target: PRKACA (human) (UniProt P17612); test: as above; conditions: compound 0.5 µM; ATP 10 µM

| Structure (SMILES) | residual activity [%] |
| --- | --- |
| FC(F)(F)c1ccc(/C=C/c2nc(COc3ccc(CCCCn4ccnn4)cc3)co2)cc1 | 101 |
| COc1cc2ncnc(Nc3ccc(O)c(Br)c3)c2cc1OC | 97.7 |
| CCOc1cc2ncnc(Nc3cccc(Br)c3)c2cc1OCC | 98.9 |
| O=C1NC(=O)c2c1c1c3ccccc3[nH]c1c1[nH]c3cc(Br)ccc3c21 | 103 |

target: PRKCD (human) (UniProt Q05655); test: as above; conditions: compound 0.5 µM; ATP 10 µM

| Structure (SMILES) | residual activity [%] |
| --- | --- |
| FC(F)(F)c1ccc(/C=C/c2nc(COc3ccc(CCCCn4ccnn4)cc3)co2)cc1 | 99.6 |
| COc1cc2ncnc(Nc3ccc(O)c(Br)c3)c2cc1OC | 97.3 |
| CCOc1cc2ncnc(Nc3cccc(Br)c3)c2cc1OCC | 100 |
| O=C1NC(=O)c2c1c1c3ccccc3[nH]c1c1[nH]c3cc(Br)ccc3c21 | 99.1 |

target: PRKCE (human) (UniProt Q02156); test: as above; conditions: compound 0.5 µM; ATP 10 µM
Sequence (Q02156 whole entry, looked up): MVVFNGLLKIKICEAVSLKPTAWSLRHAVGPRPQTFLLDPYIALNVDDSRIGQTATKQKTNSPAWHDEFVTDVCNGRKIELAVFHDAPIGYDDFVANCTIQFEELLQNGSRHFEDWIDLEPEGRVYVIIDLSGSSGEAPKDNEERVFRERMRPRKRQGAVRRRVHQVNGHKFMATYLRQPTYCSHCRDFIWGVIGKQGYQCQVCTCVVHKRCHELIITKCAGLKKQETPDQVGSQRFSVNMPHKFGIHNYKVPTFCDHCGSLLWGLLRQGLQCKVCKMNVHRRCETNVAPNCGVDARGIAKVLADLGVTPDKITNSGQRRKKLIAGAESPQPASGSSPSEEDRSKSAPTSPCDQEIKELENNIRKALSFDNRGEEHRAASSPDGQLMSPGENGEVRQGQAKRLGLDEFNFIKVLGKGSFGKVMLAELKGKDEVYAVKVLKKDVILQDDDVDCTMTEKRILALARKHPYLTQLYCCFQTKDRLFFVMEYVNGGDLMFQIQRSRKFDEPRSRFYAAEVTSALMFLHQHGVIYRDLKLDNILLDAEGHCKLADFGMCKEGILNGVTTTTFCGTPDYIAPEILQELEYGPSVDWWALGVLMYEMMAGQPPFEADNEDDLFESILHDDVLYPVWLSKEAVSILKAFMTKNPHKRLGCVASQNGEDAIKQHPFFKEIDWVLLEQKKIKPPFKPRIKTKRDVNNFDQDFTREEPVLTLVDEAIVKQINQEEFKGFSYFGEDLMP

| Structure (SMILES) | residual activity [%] |
| --- | --- |
| FC(F)(F)c1ccc(/C=C/c2nc(COc3ccc(CCCCn4ccnn4)cc3)co2)cc1 | 101 |
| COc1cc2ncnc(Nc3ccc(O)c(Br)c3)c2cc1OC | 93.2 |
| CCOc1cc2ncnc(Nc3cccc(Br)c3)c2cc1OCC | 94.5 |
| O=C1NC(=O)c2c1c1c3ccccc3[nH]c1c1[nH]c3cc(Br)ccc3c21 | 95.7 |

target: PRKCI (human) (UniProt P41743); test: as above; conditions: compound 0.5 µM; ATP 10 µM
Sequence (P41743 whole entry, looked up): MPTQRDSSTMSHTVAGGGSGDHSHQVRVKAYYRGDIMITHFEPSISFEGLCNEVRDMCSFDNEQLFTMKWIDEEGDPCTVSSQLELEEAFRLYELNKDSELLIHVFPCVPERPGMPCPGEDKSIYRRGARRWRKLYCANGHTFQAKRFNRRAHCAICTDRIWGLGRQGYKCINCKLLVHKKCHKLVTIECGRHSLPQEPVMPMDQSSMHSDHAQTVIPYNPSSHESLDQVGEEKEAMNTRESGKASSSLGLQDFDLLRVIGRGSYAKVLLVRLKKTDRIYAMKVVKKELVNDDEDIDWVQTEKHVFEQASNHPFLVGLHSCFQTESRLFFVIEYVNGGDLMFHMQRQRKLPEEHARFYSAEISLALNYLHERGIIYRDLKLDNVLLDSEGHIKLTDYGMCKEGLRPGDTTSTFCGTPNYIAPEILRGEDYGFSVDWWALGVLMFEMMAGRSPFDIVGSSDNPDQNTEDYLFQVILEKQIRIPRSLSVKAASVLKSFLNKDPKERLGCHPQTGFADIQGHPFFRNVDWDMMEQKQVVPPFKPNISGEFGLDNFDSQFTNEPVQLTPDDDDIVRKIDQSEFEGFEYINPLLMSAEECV

| Structure (SMILES) | residual activity [%] |
| --- | --- |
| FC(F)(F)c1ccc(/C=C/c2nc(COc3ccc(CCCCn4ccnn4)cc3)co2)cc1 | 92.6 |
| COc1cc2ncnc(Nc3ccc(O)c(Br)c3)c2cc1OC | 94 |
| CCOc1cc2ncnc(Nc3cccc(Br)c3)c2cc1OCC | 100 |
| O=C1NC(=O)c2c1c1c3ccccc3[nH]c1c1[nH]c3cc(Br)ccc3c21 | 96.2 |

target: PRKD2 (human) (UniProt Q9BZL6); test: as above; conditions: compound 0.5 µM; ATP 10 µM

| Structure (SMILES) | residual activity [%] |
| --- | --- |
| FC(F)(F)c1ccc(/C=C/c2nc(COc3ccc(CCCCn4ccnn4)cc3)co2)cc1 | 96.9 |
| COc1cc2ncnc(Nc3ccc(O)c(Br)c3)c2cc1OC | 69.7 |
| CCOc1cc2ncnc(Nc3cccc(Br)c3)c2cc1OCC | 86.9 |
| O=C1NC(=O)c2c1c1c3ccccc3[nH]c1c1[nH]c3cc(Br)ccc3c21 | 45.9 |

target: PRKG2 (human) (UniProt Q13237); test: as above; conditions: compound 0.5 µM; ATP 10 µM

| Structure (SMILES) | residual activity [%] |
| --- | --- |
| FC(F)(F)c1ccc(/C=C/c2nc(COc3ccc(CCCCn4ccnn4)cc3)co2)cc1 | 89.9 |
| COc1cc2ncnc(Nc3ccc(O)c(Br)c3)c2cc1OC | 84.1 |
| CCOc1cc2ncnc(Nc3cccc(Br)c3)c2cc1OCC | 83.9 |
| O=C1NC(=O)c2c1c1c3ccccc3[nH]c1c1[nH]c3cc(Br)ccc3c21 | 29.7 |

target: RIPK2 (human) (UniProt O43353); test: as above; conditions: compound 0.5 µM; ATP 10 µM
Sequence (O43353 whole entry, looked up): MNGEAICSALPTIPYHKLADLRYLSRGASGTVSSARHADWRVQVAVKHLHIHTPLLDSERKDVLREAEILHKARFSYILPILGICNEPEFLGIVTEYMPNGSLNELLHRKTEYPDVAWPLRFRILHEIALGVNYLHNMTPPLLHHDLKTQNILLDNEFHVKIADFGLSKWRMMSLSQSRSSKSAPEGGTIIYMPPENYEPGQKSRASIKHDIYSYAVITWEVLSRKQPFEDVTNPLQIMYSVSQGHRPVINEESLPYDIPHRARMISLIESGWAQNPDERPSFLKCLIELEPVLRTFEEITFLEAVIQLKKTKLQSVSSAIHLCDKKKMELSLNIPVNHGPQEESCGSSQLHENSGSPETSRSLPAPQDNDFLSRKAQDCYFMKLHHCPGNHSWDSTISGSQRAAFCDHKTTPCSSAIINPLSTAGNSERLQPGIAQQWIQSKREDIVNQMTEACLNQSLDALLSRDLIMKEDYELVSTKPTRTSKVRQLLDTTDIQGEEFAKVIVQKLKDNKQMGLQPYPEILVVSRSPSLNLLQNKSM

| Structure (SMILES) | residual activity [%] |
| --- | --- |
| FC(F)(F)c1ccc(/C=C/c2nc(COc3ccc(CCCCn4ccnn4)cc3)co2)cc1 | 109 |
| COc1cc2ncnc(Nc3ccc(O)c(Br)c3)c2cc1OC | 36.7 |
| CCOc1cc2ncnc(Nc3cccc(Br)c3)c2cc1OCC | 39.8 |
| O=C1NC(=O)c2c1c1c3ccccc3[nH]c1c1[nH]c3cc(Br)ccc3c21 | 99.6 |

target: SGK2 (human) (UniProt Q9HBY8); test: as above; conditions: compound 0.5 µM; ATP 10 µM
Sequence (Q9HBY8 whole entry, looked up): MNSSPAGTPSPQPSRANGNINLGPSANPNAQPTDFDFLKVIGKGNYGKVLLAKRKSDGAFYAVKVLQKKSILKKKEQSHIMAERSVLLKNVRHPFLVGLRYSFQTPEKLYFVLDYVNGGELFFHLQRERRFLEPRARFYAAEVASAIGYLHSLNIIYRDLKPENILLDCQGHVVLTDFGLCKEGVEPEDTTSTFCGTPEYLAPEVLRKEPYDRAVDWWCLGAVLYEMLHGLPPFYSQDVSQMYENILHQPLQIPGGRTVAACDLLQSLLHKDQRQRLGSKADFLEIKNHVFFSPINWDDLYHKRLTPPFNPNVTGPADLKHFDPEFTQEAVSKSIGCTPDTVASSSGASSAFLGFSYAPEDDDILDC

| Structure (SMILES) | residual activity [%] |
| --- | --- |
| FC(F)(F)c1ccc(/C=C/c2nc(COc3ccc(CCCCn4ccnn4)cc3)co2)cc1 | 103 |
| COc1cc2ncnc(Nc3ccc(O)c(Br)c3)c2cc1OC | 95.1 |
| CCOc1cc2ncnc(Nc3cccc(Br)c3)c2cc1OCC | 106 |
| O=C1NC(=O)c2c1c1c3ccccc3[nH]c1c1[nH]c3cc(Br)ccc3c21 | 68.5 |

target: SRPK2 (human) (UniProt P78362); test: as above; conditions: compound 0.5 µM; ATP 10 µM

| Structure (SMILES) | residual activity [%] |
| --- | --- |
| FC(F)(F)c1ccc(/C=C/c2nc(COc3ccc(CCCCn4ccnn4)cc3)co2)cc1 | 101 |
| COc1cc2ncnc(Nc3ccc(O)c(Br)c3)c2cc1OC | 63 |
| CCOc1cc2ncnc(Nc3cccc(Br)c3)c2cc1OCC | 95.6 |
| O=C1NC(=O)c2c1c1c3ccccc3[nH]c1c1[nH]c3cc(Br)ccc3c21 | 96.2 |

target: TYK2 JH1 catalytic (human) (UniProt P29597); test: as above; conditions: compound 0.5 µM; ATP 10 µM

| Structure (SMILES) | residual activity [%] |
| --- | --- |
| FC(F)(F)c1ccc(/C=C/c2nc(COc3ccc(CCCCn4ccnn4)cc3)co2)cc1 | 99.1 |
| COc1cc2ncnc(Nc3ccc(O)c(Br)c3)c2cc1OC | 96.5 |
| CCOc1cc2ncnc(Nc3cccc(Br)c3)c2cc1OCC | 107 |
| O=C1NC(=O)c2c1c1c3ccccc3[nH]c1c1[nH]c3cc(Br)ccc3c21 | 81.1 |

target: YES1 (human) (UniProt P07947); test: as above; conditions: compound 0.5 µM; ATP 10 µM

| Structure (SMILES) | residual activity [%] |
| --- | --- |
| FC(F)(F)c1ccc(/C=C/c2nc(COc3ccc(CCCCn4ccnn4)cc3)co2)cc1 | 85 |
| COc1cc2ncnc(Nc3ccc(O)c(Br)c3)c2cc1OC | 34.6 |
| CCOc1cc2ncnc(Nc3cccc(Br)c3)c2cc1OCC | 43.2 |
| O=C1NC(=O)c2c1c1c3ccccc3[nH]c1c1[nH]c3cc(Br)ccc3c21 | 88.4 |
